Patent publication US10172899B2, “Composition for preventing, treating and improving of voiding dysfunction comprising extract from Piper longum L” (priority 2014, dated 2019)
Each block holds one compound with its values, some of them ahead of it.

What was measured:
muscarinic M2 receptor = biological target: T1, muscarinic M2 receptor (Homo sapiens, UniProt P08172); assay: Relief of acetylcholine inhibition of forskolin-induced cAMP in human bladder smooth muscle cells (ELISA); type: cell-based; details: 10 μM, with Forskolin 10 μM + ACh 10 μM
T1 construct: The human bladder smooth muscle Cells (hBdSMC) where the muscarinic M2 receptor had been expressed were purchased from Lonza; host or cells: human bladder smooth muscle cells (hBdSMC)
T1 sequence (P08172 1-466): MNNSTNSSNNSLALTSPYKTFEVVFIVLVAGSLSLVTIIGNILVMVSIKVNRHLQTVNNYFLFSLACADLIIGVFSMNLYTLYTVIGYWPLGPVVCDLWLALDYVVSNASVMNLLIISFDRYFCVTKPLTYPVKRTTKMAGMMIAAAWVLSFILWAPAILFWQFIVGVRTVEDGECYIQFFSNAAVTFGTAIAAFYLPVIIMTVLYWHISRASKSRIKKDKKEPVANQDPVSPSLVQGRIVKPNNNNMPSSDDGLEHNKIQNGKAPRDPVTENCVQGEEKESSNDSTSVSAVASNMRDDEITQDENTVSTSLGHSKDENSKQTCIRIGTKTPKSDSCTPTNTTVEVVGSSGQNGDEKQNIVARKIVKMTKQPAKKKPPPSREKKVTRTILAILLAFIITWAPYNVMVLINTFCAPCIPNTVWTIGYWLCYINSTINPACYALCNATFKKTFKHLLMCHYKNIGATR
Source text: It is known that when muscarinic M2 receptor, which is one of GPCR (G protein-coupled receptors), is coupled with acetylcholine being an agonist it inhibits activity of adenylyl cyclase enzyme to decrease a concentration of cAMP in cells, in which if the amount of cAMP increases, detrusor is relaxed, or otherwise if the amount of cAMP decreases, detrusor is contracted. Therefore, in confirming improvement of voiding dysfunction, it is important to identify an effect of being capable of increasing or decreasing the amount of cAMP. Accordingly, it was identified whether or not the extract of Piper Longum L. has activity of inhibiting muscarinic receptor that may inhibit decrease of a concentration of cAMP by acetylcholine, by pre-treating 95% by volume of aqueous solution of ethanol extract of Piper Longum L., treating it with acetylcholine which may serve as an activator of muscarinic M2 receptor to induce decrease of a concentration of cAMP, and treating it with Forskolin that may raise a concentration of cAMP in cells. More specifically, the procedure is as follows.
The human bladder smooth muscle Cells (hBdSMC) where the muscarinic M2 receptor had been expressed were purchased from Lonza (cambrex), and used. […] The amount of cAMP in cells was evaluated by measuring absorbance (408 nm) with an ELISA kit from the supernatant taken after centrifuging cells dissolved in 0.1M HCl.

[1] = test system: CYP-induced cystitis rat model; assay: Cystometry in CYP-induced cystitis model after dosing for 3 days (Example 6.2); type: in vivo; details: extract 200 mg/kg from 3 days before cystometry; oxybutynin 0.3 mg/kg via caudal vein on the day
Description: 65 of specific pathogen-free (SPF) SD female rats were purchased from ORIENT (Korea) and used. Day and night were controlled by a 12 hour cycle, and they were allowed to access to food and water freely.
(§1) To measure bladder pressure, bladder capacity and voiding volume, which are parameters for identifying improvement of voiding dysfunction, cyclophosphamide (150 mg/kg) was once intraperitoneally administered to rats excluding a normal control group to induce irritable bladder symptoms at 3 days before cystometry. From 3 Days before cystometry, a solvent (DMSO/10% Cremophor EL=1:9, vol/vol) had been administrated to a solvent control group, and 95% by volume of aqueous ethanol solution extract of Piper Longum L. fruits prepared in Preparation Example 4.1 had been administrated to an experimental group at 200 mg/kg. In addition, oxybutynin as a positive control group was injected via a caudal vein at 0.3 mg/kg on the day of experiment.
(§2) For cystometry and injection of a physiological saline solution, instruments for cystometry and insertion of a bladder vessel were the same as in the above Example 5.2, and voiding volume and residual volume were recorded by sampling urine in a 1.5 ml tube and measuring its weight.
The basal pressure (BP), threshold pressure (TP), micturition pressure (MP) and micturition interval (MI) which are defined as in the above Example 5.2. In addition, a voiding volume being an parameter of volume parameter was defined by sampling urine in a 1.5 ml tube on the last voiding during urodynamic measurements and measuring its weight. After completing micturition, a residual volume was defined by placing the catheter inserted into bladder at the lower portion than the rat and measuring the weight of the obtained physiological saline. A bladder capacity (BC) was calculated by combining the measured residual volume (RV) and voiding volume (VV) of the rat.
The voiding cycles were measured for 120 minutes, and the average values of each parameter were calculated by selecting the most representative 5 continuous cycles among the measured voiding cycles.

[2] = test system: CYP-induced cystitis rat model; assay: Cystometry in CYP-induced cystitis model, ethanol and water extracts (Example 6.3); type: in vivo; details: extracts 200 mg/kg, oxybutynin 0.3 mg/kg
Description: as §1, §2
The basal pressure (BP), threshold pressure (TP), micturition pressure (MP) and micturition interval (MI) which are defined as in the above Example 5.2. […] A bladder capacity (BC) was calculated by combining the measured residual volume (RV) and voiding volume (VV) of the rat. […]

[3] = test system: spontaneously hypertensive rat (SHR); assay: Urodynamic study in SHR under un-anesthesia; type: in vivo
Description: 12˜18 Week-old male SHRs were purchased from Charles River (Japan) and used. Day and night were controlled by a 12 hour cycle, and they were allowed to access to food and water freely. All the rats had to urinate at 3-5 cycles under a condition with no administration. The micturition parameters of rats under a condition with no administration were considered as control groups for urodynamic parameters, while the rats, to which the water extract of Piper Longum L. fruits prepared in Preparation Example 4.2 was directly administered into gastrointestinal tracts at 300 mg/kg via catheters coupled to stomachs, became experimental groups. As a positive control group, rats administered with tolterodine at 1 mg/kg were used. The Piper Longum L. water extract and tolterodine-dosing groups were each set by 6 rats.
To measure bladder pressure, bladder capacity, voiding volume and micturition interval, which are parameters for identifying improvement of voiding dysfunction, insertion of a bladder tube and a vessel for measuring an abdominal pressure was carried out in SHR models. For cystometry and injection of a physiological saline solution, a rat was incised in center of its lower abdomen 3 days before the day of measuring urodynamic parameters, and a cuffed polyethylene catheter with a cuff (PE-50, Becton Dickinson, Parsippany, USA) was fixed on its bladder dome with purse-string suture. In addition, a polyethylene catheter (PE-10, Becton Dickinson, Parsippany, USA) with a balloon for measuring abdominal pressure was fixed on the bladder, and another polyethylene catheter (PE-10, Becton Dickinson, Parsippany, USA) was fixed following being inserted in the gastrointestinal tract. The above catheters were passed through beneath skin, and then fixed on dorsal skin, the ends of which were closed by applying heat. An un-anesthetized rat being free was placed in a metabolic cage at 3 days after inserting a bladder tube and a vessel for measuring an abdominal pressure. The tube on the back of its neck was coupled to a microinjection pump (PHD22/2000 pump; Harvard Apparatus) and a pressure transducer (Research Grade Blood Pressure Transducer; Harvard Apparatus, Holliston, USA) with a T-tube, and then intravesical pressures were measured, with injecting the physiological saline solution at room temperate at a speed of 10 ml/hour. It is to measure intravesical pressures in the rat using a principle that when a predetermined volume of physiological saline solution is filled in the bladder, it is contracted to urinate. The abdominal pressure was measured by coupling the vessel for measuring abdominal pressure to the other pressure transducer. Also, to measure a voiding volume being an indicator of volume parameter, the voiding volume was measured from a urine amount collected in a urine collector cup (fluid collector) coupled to a force displacement transducer (Research Grade Isometric Transducer; Harvard Apparatus).
Beginning to measure urodynamic parameters before administration of the extracts of Piper Longum L. and tolterodine, records of 3 to 5 stabilized micturition cycles were obtained. Then, the Piper Longum L. extracts and tolterodine were orally administered after decoupling the catheter. The catheters were again coupled thereto 20 minutes after oral administration of drugs, and voiding cycles and urodynamic study were carried out by having the rat to urinate 3 to 5 times. The average values of each parameter were measured by selecting the most representative 3 continuous cycles from voiding cycles measured before and after administration of drug.
In 3 repeated voiding cycles, a basal pressure (BP), which is an parameter of intravesical pressure, is the lowest pressure in cystometry, a threshold pressure (TP) is a pressure immediately before micturition contraction, and a micturition pressure (MP) means the maximum bladder pressure represented on voiding. […]

[4] = After Dosing, water extract 300 mg/kg, tolterodine 1 mg/kg
[5] = after vs before dosing, increase

cAMP (muscarinic M2 receptor): 28.21 pmol/mL
cAMP, % of forskolin (muscarinic M2 receptor): 91.39%
SMILES: CCN(CC)CC#CCOC(=O)C(O)(c1ccccc1)C1CCCCC1 (stereo not drawn) [Oxybutynin, oxybutynin]
BC (bladder capacity) [1]: 0.46 ± 0.14 mL
BP (basal pressure) [1]: 9.7 ± 3.1 cm H2O
MI (micturition interval) [1]: 221.54 ± 75.20 s
MP (micturition pressure) [1]: 29.2 ± 7.9 cm H2O
RV (residual volume) [1]: 0.30 ± 0.13 mL
TP (threshold pressure) [1]: 17.6 ± 4.3 cm H2O
VV (voiding volume) [1]: 0.16 ± 0.08 mL
MI (micturition interval) [2]: 248.50 ± 144.43 s
VV (voiding volume) [2]: 0.24 ± 0.15 mL

SMILES: Cc1ccc(O)c([C@H](CCN(C(C)C)C(C)C)c2ccccc2)c1 [Tolterodine, tolterodine]
BC (bladder capacity) [3, 4]: 0.41 ± 0.03 mL
BP (basal pressure) [3, 4]: 4.8 ± 1.1 cmH2O
MI (micturition interval) [3, 4]: 365.4 ± 31.8 s
MP (micturition pressure) [3, 4]: 50.5 ± 1.7 cmH2O
RV (residual volume) [3, 4]: 0 ± 0 mL
TP (threshold pressure) [3, 4]: 18.1 ± 1.7 cmH2O
VV (voiding volume) [3, 4]: 0.41 ± 0.03 mL
BC, Percentage Change (%) [3, 5]: 36.7% ↑
MI, Percentage Change (%) [3, 5]: 46.4% ↑
VV, Percentage Change (%) [3, 5]: 36.7% ↑
